Earlier results as cited in PMC5413018, “Neuropeptide S (NPS) variants modify the signaling and risk effects of NPS Receptor 1 (NPSR1) variants in asthma” (PLoS ONE, 2017).

Tested on: serum pro-inflammatory cytokines
Settings: pigs, central and peripheral administration; cited from earlier work
Text: In our cells assays, the magnitude of the mRNA expression of NR4A1 was clearly dependent on the combination of NPS and NPSR1 variants (Fig 2). NR4A1 is expressed in lymphocytes upon stimulation and is anti-inflammatory. NR4A1 has been recently described as a key regulator of catecholamine production by macrophages linking sympathetic stress response and inflammation ...

Neuropeptide S (SFRNGVGTGMKKTSFQRAKS; Neuropeptide S; UniProt P0C0P6 70-89, looked up) [NPS, Neuropeptide S, variant not specified at the place]
levels of serum pro-inflammatory cytokines (in words): could be activated
